Where a name gives a salt, the structure may show the parent alone.
What was measured:
[1] = molecular target: human PPARγ ligand binding domain (LBD) (Homo sapiens (Human), UniProt P37231); assay: TR-FRET PPARγ competitive binding assay (Invitrogen LanthaScreen)
Experimental: The assays are conducted by first evaluation of the direct interactions of the molecules with the ligand binding domain of PPARγ. […] PPARγ binding is measured by a TR-FRET competitive binding assay using Invitrogen LanthaScreen™ TR-FRET PPARγ Competitive Binding Assay (Invitrogen #4894). This assay uses a terbium-labeled anti-GST antibody to label the GST tagged human PPARγ ligand binding domain (LBD). A fluorescent small molecule pan-PPAR ligand tracer binds to the LBD causing energy transfer from the antibody to the ligand resulting in a high TR-FRET ratio. […] The TR-FRET ratio is determined by reading the fluorescence emission at 490 and 520 nm using a Synergy2 plate reader (BioTek). The ability of compounds of the present invention to bind to PPARγ may also be measured using a commercial binding assay (Invitrogen Corporation, Carlsbad, Calif.) that measures the test compounds ability to bind with PPAR-LBD/Fluormone PPAR Green complex. These assays are performed on three occasions with each assay using duplicate wells at each concentration of tested compound. The data are mean and SEM of the values obtained from the three experiments. […] Compounds were added at the concentrations shown, which ranged from 0.1-100 micromolar.

diabetic KKAy mice = assay: Glucose, insulin and triglyceride in diabetic KKAy mice; assay type: in vivo; conditions: orally dosed 93 mg/kg for 4 days, T/C normalized to vehicle activity
Experimental: The insulin sensitizing and antidiabetic pharmacology are measured in the KKA^Y mice as previously reported [Hofmann, C., Lomez, K., and Colca, J. R. (1991). Glucose transport deficiency corrected by treatment with the oral anti-hyperglycemic agent Pioglitazone. Endocrinology, 129:1915-1925.]. Compounds are formulated in 1% sodium carboxy methylcellulose, and 0.01% tween 20 and dosed daily by oral gavage. […] Compounds were formulated by suspension and orally dosed to KKA^Y mice at 93 mg/kg for 4 days. The compounds were first dissolved in DMSO and then placed into aqueous suspension containing 7-10% DMSO, 1% sodium methylcarboxycellulose, and 0.01% Tween 20. On the fifth day, the mice were fasted and blood samples were obtained approximately 18 hours after the last dose. The parameters were measured by standard assay methods. Data are mean and SEM N=6-12 mice.

Sequence of human PPARγ ligand binding domain (LBD) (P37231 238-503): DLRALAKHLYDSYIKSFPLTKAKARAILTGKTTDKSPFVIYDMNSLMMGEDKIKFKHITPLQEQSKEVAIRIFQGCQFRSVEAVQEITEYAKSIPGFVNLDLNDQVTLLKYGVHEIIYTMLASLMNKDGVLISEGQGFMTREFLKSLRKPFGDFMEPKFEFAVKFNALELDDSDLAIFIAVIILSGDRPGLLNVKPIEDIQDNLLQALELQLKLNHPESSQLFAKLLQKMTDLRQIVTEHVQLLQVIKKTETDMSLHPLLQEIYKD

For `CCO[C@@H](Cc1ccc(OCc2ccccn2)cc1)C(=O)NO` [Compound 1, (2S)-2-ethoxy-N-hydroxy-3-[4-(pyridin-2-ylmethoxy)phenyl]propanamide hydrogen chloride], the IC50 [1] was 58.9 µM.

`CCO[C@H](Cc1ccc(OC[C@@H](O)c2cccc(OC)c2)cc1)C(=O)NO` [Compound 2, (2R)-2-ethoxy-N-hydroxy-3-{4-[(2S)-2-hydroxy-2-(3-methoxyphenyl)ethoxy]phenyl}propanamide] was tested, and the IC50 [1] was over 100 µM.

For `CCO[C@@H](Cc1ccc(OCc2cc(OC)ccn2)cc1)C(=O)NO` [Compound 3, (2S)-2-ethoxy-N-hydroxy-3-{4-[(4-methoxypyridin-2-yl)methoxy]phenyl}propanamide hydrochloride], the IC50 [1] was over 250 µM.

`CCO[C@@H](Cc1ccc(OCc2cc(OC)ccn2)cc1)C(=O)N(C)OC` [Compound 4, (2S)-2-ethoxy-N-methoxy-3-{4-[(4-methoxypyridin-2-yl)methoxy]phenyl}-N-methylpropanamide] gave an IC50 [1] of 27.7 µM.

For `CCO[C@@H](Cc1ccc(OCc2cc(OC)ccn2)cc1)C(=O)NOC.Cl` [Compound 5, (2S)-2-ethoxy-N-methoxy-3-{4-[(4-methoxypyridin-2-yl)methoxy]phenyl}propanamide hydrochloride], the “Gluclose (mean T/C)” value (diabetic KKAy mice) was 0.97 and the IC50 [1] was over 250 µM.

For `CCO[C@@H](Cc1ccc(OCc2cc(OC)ccn2)cc1)C(=O)N(C)O.Cl` [Compound 6, (2S)-2-ethoxy-N-hydroxy-3-{4-[(4-methoxypyridin-2-yl)methoxy]phenyl}-N-methylpropanamide hydrochloride], the “Gluclose (mean T/C)” value (diabetic KKAy mice) was 0.55 and the IC50 [1] was over 195 µM.

With `CCO[C@@H](Cc1ccc(OCc2cccc(I)c2)cc1)C(=O)NO` [Compound 7, (2S)-2-ethoxy-N-hydroxy-3-{4-[(3-iodobenzyl)oxy]phenyl}propanamide] the IC50 [1] was 11.8 µM.

Work on `CCO[C@H](Cc1ccc(OCC(=O)c2cccc(OC)c2)cc1)C(=O)NOC` [Compound 8, (2R)-2-ethoxy-N-methoxy-3-{4-[2-(3-methoxyphenyl)-2-oxoethoxy]phenyl}propanamide] yielded an IC50 [1] of 98.5 µM.

Work on `CCO[C@@H](Cc1ccc(OCc2ccc(S(C)(=O)=O)cc2)cc1)C(=O)NOC` [Compound 9, (2S)-2-ethoxy-N-methoxy-3-(4-{[4-(methylsulfonyl)benzyl]oxy}phenyl) propanamide] yielded an IC50 [1] of over 250 µM.

In the case of `CCO[C@@H](Cc1ccc(OCCc2ccc(OS(C)(=O)=O)cc2)cc1)C(=O)NOC` [Compound 10], the IC50 [1] is reported as 7.9 µM.

`CCO[C@H](Cc1ccc(OCC(=O)c2cccc(OC)c2)cc1)C(=O)N(C)OC` [Compound 11, (2R)-2-ethoxy-N-methoxy-3-{4-[2-(3-methoxyphenyl)-2-oxoethoxy]phenyl}-N-methylpropanamide] was tested, and the IC50 [1] was 30.5 µM.

For `CCO[C@@H](Cc1ccc(OC[C@@H](O)c2cccc(OC)c2)cc1)C(=O)NOC` [Compound 12, (2S)-2-ethoxy-3-{4-[(2S)-2-hydroxy-2-(3-methoxyphenyl)ethoxy]phenyl}-N-methoxypropanamide], the “Gluclose (mean T/C)” value (diabetic KKAy mice) was 0.49 and the IC50 [1] was 164 µM.

In the case of `CCO[C@@H](Cc1ccc(OCC(=O)c2cccc(OC)c2)cc1)C(=O)NOC` [Compound 13, (2S)-2-ethoxy-N-methoxy-3-{4-[2-(3-methoxyphenyl)-2-oxoethoxy]phenyl}Propanamide], the “Gluclose (mean T/C)” value (diabetic KKAy mice) is reported as 0.59 and the IC50 [1] is reported as 61.4 µM.

`CCO[C@@H](Cc1ccc(OCC(=O)c2cccc(OC)c2)cc1)C(=O)N(C)OC` [Compound 14, (2S)-2-ethoxy-N-methoxy-3-{4-[2-(3-methoxyphenyl)-2-oxoethoxy]phenyl}-N-methylpropanamide] was tested, and the “Gluclose (mean T/C)” value (diabetic KKAy mice) was 0.76 and the IC50 [1] was over 250 µM.

Work on `CCO[C@@H](Cc1ccc(OC[C@H](O)c2cccc(OC)c2)cc1)C(=O)NOC` [Compound 15, (2S)-2-ethoxy-3-{4-[(2R)-2-hydroxy-2-(3-methoxyphenyl)ethoxy]phenyl}-N-methoxypropanamide] yielded an IC50 [1] of over 200 µM.

In the case of `CCO[C@@H](Cc1ccc(OC[C@H](O)c2cccc(OC)c2)cc1)C(=O)N(C)OC` [Compound 16, (2S)-2-Ethoxy-3-{4-[(2R)-2-hydroxy-2-(3-methoxyphenyl)ethoxy]phenyl}-N-methoxy-N-methylpropanamide], the IC50 [1] is reported as 191 µM.

`CCO[C@@H](Cc1ccc(OC[C@@H](O)c2cccc(OC)c2)cc1)C(=O)N(C)OC` [Compound 17] gave an IC50 [1] of 27.7 µM.

For `CCO[C@H](Cc1ccc(OC[C@@H](O)c2cccc(OC)c2)cc1)C(=O)NOC` [Compound 18, (2R)-2-ethoxy-3-{4-[(2S)-2-hydroxy-2-(3-methoxyphenyl)ethoxy]phenyl}-N-methoxypropanamide], the IC50 [1] was over 250 µM.

Work on `CCO[C@H](Cc1ccc(OC[C@H](O)c2cccc(OC)c2)cc1)C(=O)NOC` [Compound 19, (2R)-2-ethoxy-3-{4-[(2R)-2-hydroxy-2-(3-methoxyphenyl)ethoxy]phenyl}-N-methoxypropanamide] yielded an IC50 [1] of over 250 µM.

`CCO[C@@H](Cc1ccc(OCCc2ccc(OS(C)(=O)=O)cc2)cc1)C(=O)N(C)O` [Compound 20] gave an IC50 [1] of 10.9 µM.

Work on `CCO[C@@H](Cc1ccc(OCCc2ccc(OS(C)(=O)=O)cc2)cc1)C(=O)N(C)OC` [Compound 21] yielded an IC50 [1] of 3.7 µM.
